Where two headings read alike, the source gives them in different places.
Legend:
Assay in all cases: KINOMEscan (ScanMAX) kinase profiling
Format in all cases: binding
panel of 468 kinases [1] = target: T1, panel of 468 kinases (Homo sapiens, UniProt P54753); conditions: EPHB3; 1 μM; read-out: % control
T1 construct: purchased KINOMEscan (ScanMAX) service
T1 sequence (P54753 34-998): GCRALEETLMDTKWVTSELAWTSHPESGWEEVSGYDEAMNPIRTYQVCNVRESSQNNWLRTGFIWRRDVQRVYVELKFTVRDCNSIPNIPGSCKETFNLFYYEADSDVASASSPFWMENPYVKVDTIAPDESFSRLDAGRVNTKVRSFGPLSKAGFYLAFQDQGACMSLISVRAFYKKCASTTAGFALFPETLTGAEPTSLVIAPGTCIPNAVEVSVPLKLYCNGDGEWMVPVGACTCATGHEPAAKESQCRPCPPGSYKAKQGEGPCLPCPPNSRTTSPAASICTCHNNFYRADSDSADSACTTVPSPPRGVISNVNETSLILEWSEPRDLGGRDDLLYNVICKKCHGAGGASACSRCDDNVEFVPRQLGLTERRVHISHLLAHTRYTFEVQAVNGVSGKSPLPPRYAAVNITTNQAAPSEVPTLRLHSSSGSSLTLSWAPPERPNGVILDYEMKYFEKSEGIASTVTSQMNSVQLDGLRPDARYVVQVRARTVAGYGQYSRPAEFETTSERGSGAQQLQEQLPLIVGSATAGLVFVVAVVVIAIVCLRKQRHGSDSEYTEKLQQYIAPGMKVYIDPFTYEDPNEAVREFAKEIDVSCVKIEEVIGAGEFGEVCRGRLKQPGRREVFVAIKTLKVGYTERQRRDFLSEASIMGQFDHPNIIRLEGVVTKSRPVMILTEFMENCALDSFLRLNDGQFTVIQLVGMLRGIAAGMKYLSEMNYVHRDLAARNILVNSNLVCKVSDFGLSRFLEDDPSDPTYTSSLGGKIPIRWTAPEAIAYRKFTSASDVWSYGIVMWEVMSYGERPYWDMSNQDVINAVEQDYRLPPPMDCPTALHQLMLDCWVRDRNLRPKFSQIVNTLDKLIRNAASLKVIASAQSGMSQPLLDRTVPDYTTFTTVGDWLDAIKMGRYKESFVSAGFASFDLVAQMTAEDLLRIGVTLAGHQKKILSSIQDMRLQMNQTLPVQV

panel of 468 kinases [2] = target: T2, panel of 468 kinases (Homo sapiens, UniProt P00519, F317I); conditions: 1 μM, read-out: % control
T2 construct: purchased KINOMEscan (ScanMAX) service

panel of 468 kinases [3] = target: T3, panel of 468 kinases (Plasmodium falciparum, UniProt P61075); conditions: PFPK5(P.falciparum); 1 μM; read-out: % control
T3 construct: purchased KINOMEscan (ScanMAX) service

panel of 468 kinases [4] = target: T4, panel of 468 kinases (Homo sapiens, UniProt P45985); conditions: MEK4; 1 μM; read-out: % control
T4 construct: purchased KINOMEscan (ScanMAX) service
T4 sequence (P45985 1-399): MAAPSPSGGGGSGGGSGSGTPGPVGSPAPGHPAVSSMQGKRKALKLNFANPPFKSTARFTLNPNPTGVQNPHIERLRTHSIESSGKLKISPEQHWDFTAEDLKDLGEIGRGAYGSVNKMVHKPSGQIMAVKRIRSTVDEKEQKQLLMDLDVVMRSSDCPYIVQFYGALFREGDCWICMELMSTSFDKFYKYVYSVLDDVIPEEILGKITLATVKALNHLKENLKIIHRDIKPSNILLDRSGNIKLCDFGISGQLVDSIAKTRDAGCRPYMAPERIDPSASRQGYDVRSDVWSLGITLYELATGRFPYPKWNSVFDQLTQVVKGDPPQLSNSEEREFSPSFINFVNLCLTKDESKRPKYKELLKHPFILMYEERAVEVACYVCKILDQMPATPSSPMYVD

panel of 468 kinases [5] = target: T5, panel of 468 kinases (Homo sapiens, UniProt Q9H2G2); conditions: SLK; 1 μM; read-out: % control
T5 construct: purchased KINOMEscan (ScanMAX) service

panel of 468 kinases [6] = target: T6, panel of 468 kinases (Homo sapiens, UniProt Q13188); conditions: MST2; 1 μM; read-out: % control
T6 construct: purchased KINOMEscan (ScanMAX) service
T6 sequence (Q13188 1-491): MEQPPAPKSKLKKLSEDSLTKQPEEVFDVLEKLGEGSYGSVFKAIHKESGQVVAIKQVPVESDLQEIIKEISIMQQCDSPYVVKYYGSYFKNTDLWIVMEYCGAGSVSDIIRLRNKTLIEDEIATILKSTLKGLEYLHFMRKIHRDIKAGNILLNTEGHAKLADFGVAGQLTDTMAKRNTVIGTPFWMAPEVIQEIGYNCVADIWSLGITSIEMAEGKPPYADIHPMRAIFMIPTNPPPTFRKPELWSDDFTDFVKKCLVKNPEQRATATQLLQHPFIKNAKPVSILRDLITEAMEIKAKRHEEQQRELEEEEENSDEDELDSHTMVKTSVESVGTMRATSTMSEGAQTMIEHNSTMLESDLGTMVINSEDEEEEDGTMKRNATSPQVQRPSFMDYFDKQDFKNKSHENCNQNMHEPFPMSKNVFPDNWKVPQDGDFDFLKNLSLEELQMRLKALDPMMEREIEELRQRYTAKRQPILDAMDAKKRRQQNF

T3 sequence (P61075 whole entry): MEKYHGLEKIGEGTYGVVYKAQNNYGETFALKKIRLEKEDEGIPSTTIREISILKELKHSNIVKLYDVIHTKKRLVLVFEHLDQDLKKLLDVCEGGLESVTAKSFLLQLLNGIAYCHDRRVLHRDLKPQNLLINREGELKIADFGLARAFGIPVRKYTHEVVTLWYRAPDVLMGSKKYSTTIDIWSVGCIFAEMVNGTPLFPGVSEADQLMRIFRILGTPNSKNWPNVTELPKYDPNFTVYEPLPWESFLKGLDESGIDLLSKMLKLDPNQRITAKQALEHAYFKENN
T5 sequence (Q9H2G2 whole entry): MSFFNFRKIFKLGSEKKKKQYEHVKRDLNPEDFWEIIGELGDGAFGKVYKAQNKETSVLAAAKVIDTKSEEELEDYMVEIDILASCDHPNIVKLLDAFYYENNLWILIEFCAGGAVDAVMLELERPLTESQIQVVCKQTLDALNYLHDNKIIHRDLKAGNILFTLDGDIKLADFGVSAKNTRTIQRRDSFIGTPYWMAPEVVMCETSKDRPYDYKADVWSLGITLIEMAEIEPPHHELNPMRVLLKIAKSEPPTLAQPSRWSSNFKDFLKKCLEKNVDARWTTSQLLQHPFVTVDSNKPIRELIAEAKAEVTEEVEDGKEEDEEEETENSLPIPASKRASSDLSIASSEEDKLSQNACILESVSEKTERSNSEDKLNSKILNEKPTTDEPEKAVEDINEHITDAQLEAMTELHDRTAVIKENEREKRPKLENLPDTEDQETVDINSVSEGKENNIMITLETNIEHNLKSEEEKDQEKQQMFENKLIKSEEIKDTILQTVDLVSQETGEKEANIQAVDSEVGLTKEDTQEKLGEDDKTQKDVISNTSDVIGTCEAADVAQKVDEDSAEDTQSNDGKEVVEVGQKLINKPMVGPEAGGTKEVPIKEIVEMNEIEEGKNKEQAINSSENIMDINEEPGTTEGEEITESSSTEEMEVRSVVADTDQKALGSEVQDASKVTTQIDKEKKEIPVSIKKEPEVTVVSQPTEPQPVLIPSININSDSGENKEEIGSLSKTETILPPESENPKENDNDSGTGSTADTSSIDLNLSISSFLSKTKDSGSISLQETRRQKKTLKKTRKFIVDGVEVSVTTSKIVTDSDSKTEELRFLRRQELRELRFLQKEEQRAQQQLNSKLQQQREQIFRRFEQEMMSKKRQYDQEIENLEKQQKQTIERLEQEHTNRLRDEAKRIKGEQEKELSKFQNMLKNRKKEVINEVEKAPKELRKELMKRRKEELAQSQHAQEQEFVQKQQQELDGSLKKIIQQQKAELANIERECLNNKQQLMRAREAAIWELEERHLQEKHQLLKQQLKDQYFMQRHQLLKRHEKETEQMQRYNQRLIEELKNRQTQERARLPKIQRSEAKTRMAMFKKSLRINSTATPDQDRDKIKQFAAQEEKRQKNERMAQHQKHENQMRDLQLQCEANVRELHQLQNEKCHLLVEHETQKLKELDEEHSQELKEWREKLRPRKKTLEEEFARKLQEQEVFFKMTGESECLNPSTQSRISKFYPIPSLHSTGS
T2 sequence (P00519 whole entry F317I): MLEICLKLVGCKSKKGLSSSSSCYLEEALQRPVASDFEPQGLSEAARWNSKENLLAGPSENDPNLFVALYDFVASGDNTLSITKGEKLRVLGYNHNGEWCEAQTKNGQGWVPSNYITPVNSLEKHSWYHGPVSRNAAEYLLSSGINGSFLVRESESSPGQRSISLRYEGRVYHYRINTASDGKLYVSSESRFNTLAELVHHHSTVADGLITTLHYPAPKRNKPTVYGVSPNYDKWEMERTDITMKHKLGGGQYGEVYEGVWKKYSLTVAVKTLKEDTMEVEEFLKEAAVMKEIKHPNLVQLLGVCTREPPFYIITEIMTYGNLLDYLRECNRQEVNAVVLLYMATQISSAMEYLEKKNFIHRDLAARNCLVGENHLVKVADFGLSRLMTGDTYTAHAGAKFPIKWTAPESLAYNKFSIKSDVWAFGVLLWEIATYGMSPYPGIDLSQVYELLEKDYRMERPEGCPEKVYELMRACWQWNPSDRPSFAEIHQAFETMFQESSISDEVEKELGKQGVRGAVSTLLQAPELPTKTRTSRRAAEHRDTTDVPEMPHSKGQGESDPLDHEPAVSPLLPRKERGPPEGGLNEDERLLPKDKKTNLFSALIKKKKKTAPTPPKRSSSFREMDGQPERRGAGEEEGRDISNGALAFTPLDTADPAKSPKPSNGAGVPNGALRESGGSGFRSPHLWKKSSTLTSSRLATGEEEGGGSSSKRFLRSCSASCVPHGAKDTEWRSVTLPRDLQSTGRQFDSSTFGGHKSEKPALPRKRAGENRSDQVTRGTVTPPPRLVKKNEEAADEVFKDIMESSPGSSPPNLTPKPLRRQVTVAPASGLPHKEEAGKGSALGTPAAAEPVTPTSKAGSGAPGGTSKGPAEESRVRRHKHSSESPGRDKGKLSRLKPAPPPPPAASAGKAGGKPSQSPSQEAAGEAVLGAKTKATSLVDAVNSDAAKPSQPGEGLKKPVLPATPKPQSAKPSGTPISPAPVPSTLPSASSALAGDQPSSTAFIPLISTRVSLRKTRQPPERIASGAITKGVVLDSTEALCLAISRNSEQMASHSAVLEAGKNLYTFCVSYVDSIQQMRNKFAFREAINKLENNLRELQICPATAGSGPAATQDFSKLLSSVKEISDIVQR

SMILES: CNc1nc(Nc2ccc(S(=O)(=O)N3CCC(N4CCOCC4)CC3)cc2OC)nc2[nH]cc(Cl)c12 [Compound 12, 5-chloro-N2-(2-methoxy-4-((4-morpholinopiperidin-1-yl)sulfonyl)phenyl)-N4-methyl-7H-pyrrolo[2,3-d]pyrimidine-2,4-diamine]
- remaining binding at 1 µM (panel of 468 kinases [1]): 100%
- remaining binding at 1 µM (panel of 468 kinases [2]; ABL1(F317I)-nonphosphorylated): 100%
- remaining binding at 1 µM (panel of 468 kinases [2]; ABL1(F317I)-phosphorylated): 54%
- remaining binding at 1 µM (panel of 468 kinases [3]): 64%
- remaining binding at 1 µM (panel of 468 kinases [4]): 26%
- remaining binding at 1 µM (panel of 468 kinases [5]): 100%
- remaining binding at 1 µM (panel of 468 kinases [6]): 100%

SMILES: CNc1nc(Nc2ccc(C(=O)N3CCC(N4CCOCC4)CC3)c3c2OCO3)nc2[nH]cc(Cl)c12 [Compound 75, (7-((5-chloro-4-(methylamino)-7H-pyrrolo[2,3-d]pyrimidin-2-yl)amino)benzo[d][1,3]dioxol-4-yl)(4-morpholinopiperidin-1-yl)methanone]
- remaining binding at 1 µM (panel of 468 kinases [1]): 100%
- remaining binding at 1 µM (panel of 468 kinases [2]; ABL1(F317I)-nonphosphorylated): 100%
- remaining binding at 1 µM (panel of 468 kinases [2]; ABL1(F317I)-phosphorylated): 83%
- remaining binding at 1 µM (panel of 468 kinases [3]): 65%
- remaining binding at 1 µM (panel of 468 kinases [4]): 0.05%
- remaining binding at 1 µM (panel of 468 kinases [5]): 100%
- remaining binding at 1 µM (panel of 468 kinases [6]): 45%

SMILES: CNc1nc(Nc2ccc(P3(=O)CCN(C4CCOCC4)CC3)cc2OC)nc2[nH]cc(Cl)c12 [Compound 77, 4-(4-((5-chloro-4-(methylamino)-7H-pyrrolo[2,3-d]pyrimidin-2-yl)amino)-3-methoxyphenyl)-1-(tetrahydro-2H-pyran-4-yl)-1,4-azaphosphinane 4-oxide]
- remaining binding at 1 µM (panel of 468 kinases [1]): 100%
- remaining binding at 1 µM (panel of 468 kinases [2]; ABL1(F317I)-nonphosphorylated): 100%
- remaining binding at 1 µM (panel of 468 kinases [2]; ABL1(F317I)-phosphorylated): 51%
- remaining binding at 1 µM (panel of 468 kinases [3]): 75%
- remaining binding at 1 µM (panel of 468 kinases [4]): 4.7%
- remaining binding at 1 µM (panel of 468 kinases [5]): 100%
- remaining binding at 1 µM (panel of 468 kinases [6]): 100%

Source: patent US12479847B2 (DANA-FARBER CANCER INSTITUTE, INC., priority 2019, dated 2025)
